Key:
[1] = Rat plasma pharmacokinetics after oral administration (LC-MS/MS, noncompartmental model)
Experimental: Sildenafil was used as an internal standard (IS). […] The MS conditions were set as follows: the ESI temperature was 330 °C, nitrogen gas flow rate was 11 L min^−1, nebulizer pressure was 35 psi, and capillary voltage was 4000 V. The MS settings were optimized for each compound, including the fragmentor voltage, dwell time (sec), and collision energy voltage. […] A gradient elution program was applied using a mobile phase composed of methanol (solvent A) and 0.7 g L^−1 ammonium acetate trihydrate in water with 0.1% formic acid (solvent B). […] The mobile phase was pumped at a flow rate of 0.4 mL min^−1. The equilibration duration was 7.0 min. The sample injection volume was 5 μL. The total running time for the analysis was 20 min. […] The SPE column was conditioned with 1 mL methanol and 2 mL of 0.1% aqueous ammonia solution. […] The SPE column was gently clicked to mix the solution, then allowed to elute just below the stationary phase surface before being trapped for 1 min in the stationary phase. The column was then washed with 1 mL of 0.1% ammonia solution, forcing nitrogen to eject water from the SPE column. The column was connected to a new port via a clean test tube, and the analytes were eluted using 3 mL ethyl acetate: n-hexane (2 : 1, v/v) and 1 mL methanol. […] The residue was dissolved in 50 μL methanol, and a 5 μL volume was injected for LC-MS/MS analysis. […] The results were expressed as the mean ± SD. The evaluated parameters included Cmax (maximum concentration), Tmax (time to reach Cmax), t1/2 (half-life), Ke (elimination rate constant), AUC (area under the concentration–time curve), AUMC (area under the first moment curve), and MRT (mean residence time). The data were analyzed using Kinetica® software, employing a noncompartmental analysis approach. […] The pharmacokinetic parameters between the groups were compared using an unpaired two-tailed t-test. Statistical significance was defined as P < 0.05.

[2] = QC sample stability in spiked rat plasma; type: in vitro ADME
Experimental: The working solutions were prepared separately for obtaining a 100 μg mL^−1 concentration. Calibration standards were generated from the working solution by spiking control plasma (100 μL) with a standard mixture to get the final concentrations: 25, 100, 250, 500, 1000, and 2000 ng mL^−1 plasma of each analyte. […]
Solid-phase extraction (SPE) was performed on the calibration standards prepared in plasma, quality control (QC) samples, rat plasma, and brain homogenate samples using Chromabond ® C8-100 mg columns (Macherey Nagel, Düren, Germany). […] The SPE column was filled with 25 μL of 0.1% aqueous ammonia solution, 100 μL plasma or brain homogenate, and 50 μL IS (20 ng μL^−1). […] The eluant was dried with nitrogen gas at room temperature, then reconstituted in 300 μL methanol, vortex, and transferred to a 0.9 mL total recovery autosampler vial, and dried with nitrogen gas.
(§1) The linearity of the targeted analytes was evaluated at six concentration levels spanning the range of 25–2000 ng mL^−1, and the calibration parameters were calculated. The method's accuracy was determined by calculating the estimated value for each QC sample compared with the actual concentration. The precision was assessed by analysis of QC samples at different concentrations (25.0, 500.0, and 2000.0 ng mL^−1) on separate days. The lowest point in the calibration curve was defined as the lower limit of quantification (LLOQ), which was determined to be at an acceptable accuracy and precision. The recovery of the extractions was evaluated by comparing the areas under the peak of the extracted samples with a non-extracted standard solution. Also, the matrix effect was evaluated by comparing the plasma sample spiked with the analyte with corresponding standard solutions at the same concentrations. Finally, the stability of the sample was investigated at three concentration levels, applying the same chromatographic conditions. The stability tests included long-term, short-term, and freeze-thaw stability.

[3] = cited from earlier work
[4] = Stability of standard solutions under storage conditions; type: physicochemical; details: room temperature for 6 h and 4 °C for 12 h
Experimental: as §1
Standard solutions were maintained at room temperature for 6 h and 4 °C for 12 h, and then analyzed using the developed method. […] Recoveries remained above 89%, and the standard deviation (SD%) values were below 3%, as detailed in Table 3.

rat serotonin (ST) = assay: Analysis of serotonin in brain homogenate (ELISA sandwich kit); details: SER: within 1 to 3 h after oral administration, Fig. 6
Experimental: Wistar rats weighing 250 ± 30 g were included in the study. […] Phosphate-buffered saline (PBS) was utilized as a matrix to homogenize the brain samples. Both the brain and blood samples were frozen at −80 °C until their analysis.
An enzyme-linked immunosorbent assay (ELISA) sandwich kit was used in this study as it is known that it can accurately quantify rat serotonin (ST) in serum, plasma, cell culture supernatants, ascites, tissue homogenates, and other biological fluids. In the assay, first the plate was pre-coated with a rat ST antibody. When ST is present in the sample, it binds to the antibodies on the wells. Next, a biotinylated rat ST antibody was added, which binds to the ST in the sample. Streptavidin-HRP was then added, binding to the biotinylated ST antibody. After incubation, the unbound Streptavidin-HRP was washed away. […] The reaction was terminated by adding an acidic stop solution, and then the absorbance was measured at 450 nm.

[5] = Concentration in rat brain homogenate after oral administration (LC-MS/MS); type: in vivo, Wistar rats; details: 0.5 to 192 h after oral SER-MP
Experimental: Sildenafil was used as an internal standard (IS). […] The gradient program was configured as follows: 68% A from 0 to 2 min, raised to 96% A at 4.0 min, sustained at 96% A until 13 min, and then reverting back to 68% A at 13.1 min. […] The equilibration duration was 7.0 min. The sample injection volume was 5 μL.

[6] = rat plasma, oral SER-MP 16.0 mg kg^−1 (equimolar to SER dose), analyte SER-MP or released metabolite

Row | SMILES | Average recovery (%) ± SD, Autosampler (25 °C/24 h) ([2]; 50.0 ng mL^−1) [%] | Average recovery (%) ± SD, Freeze-thaw (−20 °C/3 cycles) ([2]; 50.0 ng mL^−1) [%] | Average recovery (%) ± SD, Autosampler (25 °C/24 h) ([2]; 500.0 ng mL^−1) [%] | Average recovery (%) ± SD, Freeze-thaw (−20 °C/3 cycles) ([2]; 500.0 ng mL^−1) [%] | Average recovery (%) ± SD, Autosampler (25 °C/24 h) ([2]; 2000.0 ng mL^−1) [%] | Average recovery (%) ± SD, Freeze-thaw (−20 °C/3 cycles) ([2]; 2000.0 ng mL^−1) [%] | Stability of standard solutions (change in peak area) [4] | other results
1 | CC(C)c1c(CN[C@H]2CC[C@@H](c3ccc(Cl)c(Cl)c3)c3ccccc32)n(C)n(-c2ccccc2)c1=O [nor-methyl-SER-MP] | – | – | – | – | – | – | – | Time retained in the plasma ([1]; rat plasma after oral SER-MP, major metabolite): 195 h
2 | CC(C)c1c(CO)n(C)n(-c2ccccc2)c1=O [3-OHMP, 3-hydroxymethylpropyphenazone] | 96.80 ± 0.98 | 94.39 ± 2.98 | 96.55 ± 1.20 | 95.47 ± 1.57 | 95.24 ± 2.56 | 95.73 ± 1.93 | – | –
3 | CN[C@H]1CC[C@@H](c2ccc(Cl)c(Cl)c2)c2ccccc21 [SER, (1S,4S)-4-(3,4-dichlorophenyl)-N-methyl-1,2,3,4-tetrahydronaphthalen-1-amine] | 92.98 ± 1.35 | 91.04 ± 2.95 | 93.23 ± 0.98 | 90.68 ± 3.92 | 91.15 ± 2.20 | 89.23 ± 4.00 | No significant changes in peak area values | Fraction excreted as metabolites [3]: About 40%; Fraction in plasma bound to proteins [3]: About 98%
4 | CC(C)c1c(CN(C)C2CCC(c3ccc(Cl)c(Cl)c3)c3ccccc32)n(C)n(-c2ccccc2)c1=O (stereo not shown) [SER-MP, sertraline-methylpropyphenazone] | 97.45 ± 0.78 | 95.70 ± 1.76 | 98.76 ± 1.03 | 96.84 ± 0.68 | 98.88 ± 0.80 | 94.99 ± 2.09 | No significant changes in peak area values | half-life ([1]; Wistar, rat, plasma, po, 16 mg kg^−1, t1/2 (half-life), rat plasma, oral SER-MP 16.0 mg kg^−1 (equimolar to SER dose), analyte SER-MP or released metabolite): 50 h; Cmax ([1]; Wistar, rat, plasma, po, 16 mg/kg, Cmax (maximum plasma concentration), rat plasma, oral SER-MP 16.0 mg kg^−1 (equimolar to SER dose), analyte SER-MP or released metabolite): 192 ng/mL; Cmax (maximum plasma concentration) [1, 6]: 192.11 ng/mL; Total clearance rate [1, 6]: 4.32 mL/day/kg; t1/2 (half-life) [1, 6]: 49.97 h; Course of serotonin level in the brain after a single oral dose (rat serotonin (ST)): approximately steady level; Concentration of SER-MP in rat brain [5]: ~100 ng/g
5 | N[C@H]1CC[C@@H](c2ccc(Cl)c(Cl)c2)c2ccccc21 [N-desmethyl-SER, N-Desmethyl-sertraline] | – | – | – | – | – | – | – | Half-life (t1/2) ([3]; in vivo): 66 to 80 h
